SMILES strings stand for the structures. Converted amounts (≈) assume the structure as drawn. Bounds are passed on as bounds.

In one test the test system is Mannheimia haemolytica MH 6357 (M7/2, reference strain, cattle infection strain). Briefly: MIC, broth-microdilution (CLSI VET01-A4), strain MH 6357. It counts as cell-based. The following applies: Mannheimia haemolytica strain MH 6357, broth-microdilution; unit assumed. The protocol: (§1) For example, representative compounds were tested against ***, Mannheimia haemolytica and Pasteurella multocida, using the conventional broth-dilution assay.
(§2) The Minimum inhibitory concentrations (MIC) of compounds according to the invention for a number of veterinary bacterial pathogens were determined by the broth-microdilution method according to CLSI document VET01-A4.
(§3) Microdilution trays containing a doubling dilution series of the test compound were used for the tests. The MIC results were interpreted according to the CLSI documents VET01-S3. The lowest concentration of compound at which no visible growth (i.e. no turbidity) detected by the unaided eye was recorded as the MIC.
A general note: Dilution methods test growth across graded concentrations, often in twofold steps.
`C=CCNCc1ccc(C#Cc2ccc(C(=O)N[C@H](C(=O)NO)C(C)C)cc2)cc1` [Compound 94] displayed an MIC MH 6357 of 12.5 mg/L (≈ 30.8 µM).

`CC[C@H](C)[C@H](NC(=O)c1ccc(C#Cc2ccc(CNCCN(C)C)cc2)cc1)C(=O)NO` [Compound 116] came in with an MIC MH 6357 of 25 mg/L (≈ 55.5 µM).

Take `CCN(CC)Cc1ccc(C#Cc2ccc(C(=O)N[C@@H](CO)C(=O)NO)cc2)cc1` [Compound 76]: the MIC MH 6357 amounted to 12.5 mg/L (≈ 30.5 µM).

Regarding `CC(C)[C@H](NC(=O)c1ccc(C#Cc2ccc(CN3CCC(c4ccccc4)CC3)cc2)cc1)C(=O)NO` [Compound 100], the MIC MH 6357 was determined as 3.1 mg/L (≈ 6.08 µM).

The compound `CC(C)NCc1ccc(C#Cc2ccc(C(=O)N[C@@H](CO)C(=O)NO)cc2)cc1` [Compound 72] displayed an MIC MH 6357 of 12.5 mg/L (≈ 31.6 µM).

The subject of the next test is Mannheimia haemolytica MH 6374 (ATCC 33396, reference strain). The experiment in a line: MIC, broth-microdilution (CLSI VET01-A4), strain MH 6374. The format is cell-based. The following applies: Mannheimia haemolytica strain MH 6374, broth-microdilution; unit assumed. The method, then:
as §1, §2, §3
For the compound `C=CCNCc1ccc(C#Cc2ccc(C(=O)N[C@H](C(=O)NO)C(C)C)cc2)cc1` [Compound 94], the MIC MH 6374 was found to be 0.8 mg/L (≈ 1.97 µM).

`CC[C@H](C)[C@H](NC(=O)c1ccc(C#Cc2ccc(CNCCN(C)C)cc2)cc1)C(=O)NO` [Compound 116] came in with an MIC MH 6374 of 25 mg/L (≈ 55.5 µM).

`CCN(CC)Cc1ccc(C#Cc2ccc(C(=O)N[C@@H](CO)C(=O)NO)cc2)cc1` [Compound 76] showed an MIC MH 6374 of 25 mg/L (≈ 61.1 µM).

As to `CC(C)[C@H](NC(=O)c1ccc(C#Cc2ccc(CN3CCC(c4ccccc4)CC3)cc2)cc1)C(=O)NO` [Compound 100], the MIC MH 6374 worked out at 6.3 mg/L (≈ 12.4 µM).

For `CC(C)NCc1ccc(C#Cc2ccc(C(=O)N[C@@H](CO)C(=O)NO)cc2)cc1` [Compound 72], the MIC MH 6374 turned out to be 12.5 mg/L (≈ 31.6 µM).

The test system of the next test is Mannheimia haemolytica MH 10720 (154, BRD field isolate). The experiment in a line: MIC, broth-microdilution (CLSI VET01-A4), strain MH 10720. The format is cell-based. The following applies: Mannheimia haemolytica strain MH 10720, broth-microdilution; unit assumed. The method, then:
as §1, §2, §3
In turn, `C=CCNCc1ccc(C#Cc2ccc(C(=O)N[C@H](C(=O)NO)C(C)C)cc2)cc1` [Compound 94] yielded an MIC MH 10720 of 0.8 mg/L (≈ 1.97 µM).

`CC[C@H](C)[C@H](NC(=O)c1ccc(C#Cc2ccc(CNCCN(C)C)cc2)cc1)C(=O)NO` [Compound 116]: the MIC MH 10720 was 3.1 mg/L (≈ 6.88 µM).

Compound `CCN(CC)Cc1ccc(C#Cc2ccc(C(=O)N[C@@H](CO)C(=O)NO)cc2)cc1` [Compound 76] returned an MIC MH 10720 of 6.3 mg/L (≈ 15.4 µM).

In turn, `CC(C)[C@H](NC(=O)c1ccc(C#Cc2ccc(CN3CCC(c4ccccc4)CC3)cc2)cc1)C(=O)NO` [Compound 100] displayed an MIC MH 10720 of 0.8 mg/L (≈ 1.57 µM).

`CC(C)NCc1ccc(C#Cc2ccc(C(=O)N[C@@H](CO)C(=O)NO)cc2)cc1` [Compound 72] showed an MIC MH 10720 of 6.3 mg/L (≈ 15.9 µM).

The subject of a further test is Mannheimia haemolytica MH 12587 (1071, BRD field isolate, macrolide-resistance: erm+, E+). Briefly: MIC, broth-microdilution (CLSI VET01-A4), strain MH 12587. The format is cell-based. The following applies: Mannheimia haemolytica strain MH 12587, broth-microdilution; unit assumed. The protocol:
as §1, §2, §3
`C=CCNCc1ccc(C#Cc2ccc(C(=O)N[C@H](C(=O)NO)C(C)C)cc2)cc1` [Compound 94] displayed an MIC MH 12587 of 1.6 mg/L (≈ 3.95 µM).

As to `CC[C@H](C)[C@H](NC(=O)c1ccc(C#Cc2ccc(CNCCN(C)C)cc2)cc1)C(=O)NO` [Compound 116], the MIC MH 12587 was determined as 1 mg/L (≈ 2.22 µM).

As for `CCN(CC)Cc1ccc(C#Cc2ccc(C(=O)N[C@@H](CO)C(=O)NO)cc2)cc1` [Compound 76], the MIC MH 12587 stood at 25 mg/L (≈ 61.1 µM).

For the compound `CC(C)[C@H](NC(=O)c1ccc(C#Cc2ccc(CN3CCC(c4ccccc4)CC3)cc2)cc1)C(=O)NO` [Compound 100], the MIC MH 12587 is 12.5 mg/L (≈ 24.5 µM).

Turning to `CC(C)NCc1ccc(C#Cc2ccc(C(=O)N[C@@H](CO)C(=O)NO)cc2)cc1` [Compound 72], the MIC MH 12587 was found to be 25 mg/L (≈ 63.2 µM).

The subject of another test is Mannheimia haemolytica MH 13065 (XB0446-6003.9, BRD field isolate). Briefly: MIC, broth-microdilution (CLSI VET01-A4), strain MH 13065. The format is cell-based. Particulars: Mannheimia haemolytica strain MH 13065, broth-microdilution; unit assumed. The protocol:
as §1, §2, §3
`C=CCNCc1ccc(C#Cc2ccc(C(=O)N[C@H](C(=O)NO)C(C)C)cc2)cc1` [Compound 94] came in with an MIC MH 13065 of 0.8 mg/L (≈ 1.97 µM).

`CC[C@H](C)[C@H](NC(=O)c1ccc(C#Cc2ccc(CNCCN(C)C)cc2)cc1)C(=O)NO` [Compound 116] registered an MIC MH 13065 of 25 mg/L (≈ 55.5 µM).

`CCN(CC)Cc1ccc(C#Cc2ccc(C(=O)N[C@@H](CO)C(=O)NO)cc2)cc1` [Compound 76] showed an MIC MH 13065 of 12.5 mg/L (≈ 30.5 µM).

Turning to `CC(C)[C@H](NC(=O)c1ccc(C#Cc2ccc(CN3CCC(c4ccccc4)CC3)cc2)cc1)C(=O)NO` [Compound 100], the MIC MH 13065 was 3.1 mg/L (≈ 6.08 µM).

`CC(C)NCc1ccc(C#Cc2ccc(C(=O)N[C@@H](CO)C(=O)NO)cc2)cc1` [Compound 72] displayed an MIC MH 13065 of 12.5 mg/L (≈ 31.6 µM).

The next test relates to Mannheimia haemolytica MH 13093 (XB0472-6014.1, BRD field isolate). Briefly: MIC, broth-microdilution (CLSI VET01-A4), strain MH 13093. The format is cell-based. The following applies: Mannheimia haemolytica strain MH 13093, broth-microdilution; unit assumed. The method, then:
as §1, §2, §3
As to `C=CCNCc1ccc(C#Cc2ccc(C(=O)N[C@H](C(=O)NO)C(C)C)cc2)cc1` [Compound 94], the MIC MH 13093 came out at 1.6 mg/L (≈ 3.95 µM).

With `CC[C@H](C)[C@H](NC(=O)c1ccc(C#Cc2ccc(CNCCN(C)C)cc2)cc1)C(=O)NO` [Compound 116], the MIC MH 13093 is 25 mg/L (≈ 55.5 µM).

Compound `CCN(CC)Cc1ccc(C#Cc2ccc(C(=O)N[C@@H](CO)C(=O)NO)cc2)cc1` [Compound 76] registered an MIC MH 13093 of 25 mg/L (≈ 61.1 µM).

`CC(C)[C@H](NC(=O)c1ccc(C#Cc2ccc(CN3CCC(c4ccccc4)CC3)cc2)cc1)C(=O)NO` [Compound 100] came in with an MIC MH 13093 of 6.3 mg/L (≈ 12.4 µM).

In the case of `CC(C)NCc1ccc(C#Cc2ccc(C(=O)N[C@@H](CO)C(=O)NO)cc2)cc1` [Compound 72], the MIC MH 13093 was 12.5 mg/L (≈ 31.6 µM).

For a further test, the system named is Pasteurella multocida PM 6267 (P 2225 (L386), reference strain, mouse infection strain). The experiment in a line: MIC, broth-microdilution (CLSI VET01-A4), strain PM 6267. It counts as cell-based. Particulars: Pasteurella multocida strain PM 6267, broth-microdilution; unit assumed. The protocol:
as §1, §2, §3
Compound `C=CCNCc1ccc(C#Cc2ccc(C(=O)N[C@H](C(=O)NO)C(C)C)cc2)cc1` [Compound 94] showed an MIC PM 6267 of at most 0.1 mg/L.

Regarding `CC[C@H](C)[C@H](NC(=O)c1ccc(C#Cc2ccc(CNCCN(C)C)cc2)cc1)C(=O)NO` [Compound 116], the MIC PM 6267 amounted to 0.8 mg/L (≈ 1.78 µM).

Regarding `CCN(CC)Cc1ccc(C#Cc2ccc(C(=O)N[C@@H](CO)C(=O)NO)cc2)cc1` [Compound 76], the MIC PM 6267 amounted to 0.4 mg/L (≈ 0.977 µM).

Take `CC(C)[C@H](NC(=O)c1ccc(C#Cc2ccc(CN3CCC(c4ccccc4)CC3)cc2)cc1)C(=O)NO` [Compound 100]: the MIC PM 6267 turned out to be 0.4 mg/L (≈ 0.785 µM).

Regarding `CC(C)NCc1ccc(C#Cc2ccc(C(=O)N[C@@H](CO)C(=O)NO)cc2)cc1` [Compound 72], the MIC PM 6267 stood at 1.6 mg/L (≈ 4.05 µM).

The next test concerns Pasteurella multocida PM 10775 (080130003051, BRD field isolate). The experiment in a line: MIC, broth-microdilution (CLSI VET01-A4), strain PM 10775. It counts as cell-based. Particulars: Pasteurella multocida strain PM 10775, broth-microdilution; unit assumed. The method, then: as §1, §2, §3
`C=CCNCc1ccc(C#Cc2ccc(C(=O)N[C@H](C(=O)NO)C(C)C)cc2)cc1` [Compound 94] had an MIC PM 10775 of at most 0.1 mg/L.

In turn, `CC[C@H](C)[C@H](NC(=O)c1ccc(C#Cc2ccc(CNCCN(C)C)cc2)cc1)C(=O)NO` [Compound 116] returned an MIC PM 10775 of 0.4 mg/L (≈ 0.888 µM).

`CCN(CC)Cc1ccc(C#Cc2ccc(C(=O)N[C@@H](CO)C(=O)NO)cc2)cc1` [Compound 76]: the MIC PM 10775 is 0.2 mg/L (≈ 0.488 µM).

In turn, `CC(C)[C@H](NC(=O)c1ccc(C#Cc2ccc(CN3CCC(c4ccccc4)CC3)cc2)cc1)C(=O)NO` [Compound 100] showed an MIC PM 10775 of at most 0.1 mg/L.

`CC(C)NCc1ccc(C#Cc2ccc(C(=O)N[C@@H](CO)C(=O)NO)cc2)cc1` [Compound 72] showed an MIC PM 10775 of 0.8 mg/L (≈ 2.02 µM).

The next test deals with Pasteurella multocida PM 12080 (IV102277-0093, BRD field isolate). The experiment in a line: MIC, broth-microdilution (CLSI VET01-A4), strain PM 12080. The format is cell-based. The following applies: Pasteurella multocida strain PM 12080, broth-microdilution; unit assumed. The protocol: as §1, §2, §3
Consider `C=CCNCc1ccc(C#Cc2ccc(C(=O)N[C@H](C(=O)NO)C(C)C)cc2)cc1` [Compound 94], for which the MIC PM 12080 turned out to be 0.8 mg/L (≈ 1.97 µM).

For `CC[C@H](C)[C@H](NC(=O)c1ccc(C#Cc2ccc(CNCCN(C)C)cc2)cc1)C(=O)NO` [Compound 116], the MIC PM 12080 amounted to 3.1 mg/L (≈ 6.88 µM).

In turn, `CCN(CC)Cc1ccc(C#Cc2ccc(C(=O)N[C@@H](CO)C(=O)NO)cc2)cc1` [Compound 76] gave an MIC PM 12080 of 3.1 mg/L (≈ 7.57 µM).

`CC(C)[C@H](NC(=O)c1ccc(C#Cc2ccc(CN3CCC(c4ccccc4)CC3)cc2)cc1)C(=O)NO` [Compound 100] displayed an MIC PM 12080 of 0.8 mg/L (≈ 1.57 µM).

`CC(C)NCc1ccc(C#Cc2ccc(C(=O)N[C@@H](CO)C(=O)NO)cc2)cc1` [Compound 72] showed an MIC PM 12080 of 12.5 mg/L (≈ 31.6 µM).

For the origin of these results see patent US11034650B2, “Compounds useful for treating a Mannheimia haemolytica or Histophilus somni infection” (Intervet Inc., priority 2016, dated 2021).
